Measured values taken from patent US8580803B2, “Substituted pyrrolo-aminopyrimidine compounds” (ArQule, Inc., priority 2009, dated 2013).

target: T1, ACK1 (110-489) (Homo sapiens, UniProt Q07912); test: ACK1 Activity Assay (AlphaScreen, PYK2-derived peptide); assay type: biochemical; details: Average of ACK1(110-489), IC50, AlphaScreen (Pyk2); read-out: ACK1 (110-489) IC50
T1 construct: ACK1 110-489 (12.5 μl) were added to each well
Description: The extent of peptide phosphorylation was determined by using acceptor beads conjugated to phosphotyrosine antibody that recognizes the phosphorylated peptide and donor beads conjugated to streptavidin that binds to the biotin on the peptide. Excitation of the donor beads converted ambient oxygen to excited singlet oxygen which when in close proximity to acceptor beads, reacted with acceptor beads where the signal was amplified.
Test inhibitors and controls (N-(2,6-dimethylphenyl)-4-(2-ethoxyphenoxy)-2-[(4-piperazin-1-ylphenyl)amino]pyrimidine-5-carboxamide) were prepared in 10% DMSO at 10× the desired final concentration. […] After a 20-min incubation at room temperature, the kinase reaction was initiated by the addition of 10 μl of PYK2/ATP mixture. […] The plates were incubated for 60 min at room temperature. The reaction was stopped by the addition of 10 μl stop/detection mixture which contains EDTA (final concentration is 10 mM), AlphaScreen™ Streptavidin Donor beads (final concentration is 500 ng/well) and AlphaScreen™ Phospho-tyrosine (P-Tyr-100) Acceptor beads (final concentration is 500 ng/well) were diluted in assay buffer. This reagent addition step was performed in the dark because the AlphaScreen™ beads are light-sensitive. The plate was incubated for 60 min at room temperature in the dark and the plates were read on the Perkin Elmer Envision Multilabel plate reader ([…]).

T1 sequence (Q07912 110-489, species assumed): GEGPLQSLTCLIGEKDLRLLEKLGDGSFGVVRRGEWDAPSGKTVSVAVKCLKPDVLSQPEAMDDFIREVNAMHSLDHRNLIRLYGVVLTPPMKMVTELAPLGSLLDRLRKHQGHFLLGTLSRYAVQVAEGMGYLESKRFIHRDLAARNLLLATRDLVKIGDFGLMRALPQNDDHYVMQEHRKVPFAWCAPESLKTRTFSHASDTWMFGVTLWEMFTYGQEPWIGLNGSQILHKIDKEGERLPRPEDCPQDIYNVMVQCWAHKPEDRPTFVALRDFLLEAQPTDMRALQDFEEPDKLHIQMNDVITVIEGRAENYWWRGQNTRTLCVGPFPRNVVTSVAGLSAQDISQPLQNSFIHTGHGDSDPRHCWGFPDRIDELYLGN

Row | Compound | IC50
1 | CC(=O)Nc1cccc(Nc2ncnc3[nH]cc(C(=O)c4ccccc4C)c23)c1 [drawing 243, N-(3-{[5-(2-methylbenzoyl)-7H-pyrrolo[2,3-d]pyrimidin-4-yl]amino}phenyl)acetamide] | 1260 nM
2 | CN(C)CC(=O)Nc1ccc(Nc2ncnc3[nH]cc(C(=O)c4ccccc4)c23)cc1 [N-(4-((5-benzoyl-7H-pyrrolo[2,3-d]pyrimidin-4-yl)amino)phenyl)-2-(dimethylamino)acetamide] | 241 nM
3 | O=C(c1ccccc1)c1c[nH]c2ncnc(Nc3ccc4cc[nH]c4c3)c12 [(4-((1H-indol-6-yl)amino)-7H-pyrrolo[2,3-d]pyrimidin-5-yl)(phenyl)methanone] | 61500 nM
4 | CNC(=O)c1cccc(Nc2ncnc3[nH]cc(C(=O)c4cccc(F)c4)c23)c1 [drawing 244, 3-{[5-(3-fluorobenzoyl)-7H-pyrrolo[2,3-d]pyrimidin-4-yl]amino}-N-methylbenzamide] | 914 nM
5 | CNC(=O)c1cccc(Nc2ncnc3[nH]cc(C(=O)c4ccccc4C)c23)c1 [drawing 242, N-methyl-3-{[5-(2-methylbenzoyl)-7H-pyrrolo[2,3-d]pyrimidin-4-yl]amino}benzamide] | 189 nM
6 | CC(=O)Nc1cccc(Nc2ncnc3[nH]cc(C(=O)c4cccc(F)c4)c23)c1 [drawing 245, N-(3-{[5-(3-fluorobenzoyl)-7H-pyrrolo[2,3-d]pyrimidin-4-yl]amino}phenyl)acetamide] | 2290 nM
7 | CCCC(=O)Nc1ccc(Nc2ncnc3[nH]cc(C(=O)c4ccccc4)c23)cc1 [N-{4-[(5-benzoyl-7H-pyrrolo[2,3-d]pyrimidin-4-yl)amino]phenyl}butanamide] | 3770 nM
8 | O=C(c1ccccc1)c1c[nH]c2ncnc(Nc3ccc(NC(=O)C4CCN(c5ccncc5)CC4)cc3)c12 [N-(4-{[5-(phenylcarbonyl)-7H-pyrrolo[2,3-d]pyrimidin-4-yl]amino}phenyl)-1-pyridin-4-ylpiperidine-4-carboxamide] | 1270 nM
9 | CCNC(=O)Nc1cccc(Nc2ncnc3[nH]cc(C(=O)c4ccccc4)c23)c1 [drawing 275, 1-ethyl-3-(3-{[5-(phenylcarbonyl)-7H-pyrrolo[2,3-d]pyrimidin-4-yl]amino}phenyl)urea] | 1810 nM
10 | CC(C)C(=O)Nc1ccc(Nc2ncnc3[nH]cc(C(=O)c4ccccc4)c23)cc1 [N-{4-[(5-benzoyl-7H-pyrrolo[2,3-d]pyrimidin-4-yl)amino]phenyl}-2-methylpropanamide] | 4770 nM
11 | COc1ccc(Nc2ncnc3[nH]cc(C(=O)c4ccccc4)c23)c(OC)c1 [(4-((2,4-dimethoxy-phenyl)amino)-7H-pyrrolo[2,3-d]pyrimidin-5-yl)(phenyl)methanone] | 4530 nM
12 | O=C(Nc1ccc(N2CCCCC2)cc1)c1cccc(Nc2ncnc3[nH]cc(C(=O)c4ccccc4)c23)c1 [3-[(5-benzoyl-7H-pyrrolo[2,3-d]pyrimidin-4-yl)amino]-N-(4-piperidin-1-ylphenyl)benzamide] | 31400 nM
13 | NC(=O)CCC(=O)Nc1ccc(Nc2ncnc3[nH]cc(C(=O)c4ccccc4)c23)cc1 [N-(4-{[5-(phenylcarbonyl)-7H-pyrrolo[2,3-d]pyrimidin-4-yl]amino}phenyl)butanediamide] | 646 nM
14 | O=C(c1ccccc1)c1c[nH]c2ncnc(Nc3cccc(CO)c3)c12 [drawing 276, (4-{[3-(hydroxymethyl)phenyl]amino}-7H-pyrrolo[2,3-d]pyrimidin-5-yl)(phenyl)methanone] | 240 nM
15 | O=C(c1ccccc1)c1c[nH]c2ncnc(Nc3cccc(CCO)c3)c12 [drawing 259, (4-{[3-(2-hydroxyethyl)phenyl]amino}-7H-pyrrolo[2,3-d]pyrimidin-5-yl)(phenyl)methanone] | 5140 nM
16 | CN(C)CCCC(=O)Nc1ccc(Nc2ncnc3[nH]cc(C(=O)c4ccccc4)c23)cc1 [4-(dimethylamino)-N-(4-{[5-(phenylcarbonyl)-7H-pyrrolo[2,3-d]pyrimidin-4-yl]amino}phenyl)butanamide] | 2570 nM

Row | Compound | IC50
17 | NCc1ccc(Nc2ncnc3[nH]cc(C(=O)c4ccccc4)c23)cc1 [drawing 258, (4-{[4-(aminomethyl)phenyl]amino}-7H-pyrrolo[2,3-d]pyrimidin-5-yl)(phenyl)methanone] | 446 nM
18 | O=C(CCc1cccnc1)Nc1ccc(Nc2ncnc3[nH]cc(C(=O)c4ccccc4)c23)cc1 [N-(4-{[5-(phenylcarbonyl)-7H-pyrrolo[2,3-d]pyrimidin-4-yl]amino}phenyl)-3-pyridin-3-ylpropanamide] | 4390 nM
19 | COCc1ccc(CC(=O)Nc2ccc(Nc3ncnc4[nH]cc(C(=O)c5ccccc5)c34)cc2)cc1 [2-[4-(methoxymethyl)phenyl]-N-(4-{[5-(phenylcarbonyl)-7H-pyrrolo[2,3-d]pyrimidin-4-yl]amino}phenyl)acetamide] | 69000 nM
20 | COCCCC(=O)Nc1ccc(Nc2ncnc3[nH]cc(C(=O)c4ccccc4)c23)cc1 [4-methoxy-N-(4-{[5-(phenylcarbonyl)-7H-pyrrolo[2,3-d]pyrimidin-4-yl]amino}phenyl)butanamide] | 1020 nM
21 | O=C(Nc1ccc(Nc2ncnc3[nH]cc(C(=O)c4ccccc4)c23)cc1)c1ccc(CN2CCOCC2)cc1 [4-(morpholin-4-ylmethyl)-N-(4-{[5-(phenylcarbonyl)-7H-pyrrolo[2,3-d]pyrimidin-4-yl]amino}phenyl)benzamide] | 10900 nM
22 | CC(=O)NCCC(=O)Nc1ccc(Nc2ncnc3[nH]cc(C(=O)c4ccccc4)c23)cc1 [3-acetamido-N-(4-((5-benzoyl-7H-pyrrolo[2,3-d]pyrimidin-4-yl)amino)phenyl)propanamide] | 776 nM
23 | O=C(Nc1ccc(Nc2ncnc3[nH]cc(C(=O)c4ccccc4)c23)cc1)c1ccncc1Cl [3-chloro-N-(4-{[5-(phenylcarbonyl)-7H-pyrrolo[2,3-d]pyrimidin-4-yl]amino}phenyl)pyridine-4-carboxamide] | 28900 nM
24 | CC(=O)Nc1ccc(Nc2ncnc3[nH]cc(C(=O)c4ccccc4)c23)cc1 [drawing 241, N-{4-[(5-benzoyl-7H-pyrrolo[2,3-d]pyrimidin-4-yl)amino]phenyl}acetamide] | 1430 nM
25 | CN(C)CCC(=O)Nc1ccc(Nc2ncnc3[nH]cc(C(=O)c4ccccc4)c23)cc1 [N-(4-((5-benzoyl-7H-pyrrolo[2,3-d]pyrimidin-4-yl)amino)phenyl)-3-(dimethylamino)propanamide] | 415 nM
26 | O=C(Cc1cncc(Br)c1)Nc1cccc(Nc2ncnc3[nH]cc(C(=O)c4ccccc4)c23)c1 [drawing 251, N-{3-[(5-benzoyl-7H-pyrrolo[2,3-d]pyrimidin-4-yl)amino]phenyl}-2-(5-bromopyridin-3-yl)acetamide] | 1470 nM
27 | COC(=O)c1cc(NC(=O)CNC(C)=O)cc(Nc2ncnc3[nH]cc(C(=O)c4ccccc4)c23)c1 [drawing 277, methyl 3-[(N-acetylglycyl)amino]-5-{[5-(phenylcarbonyl)-7H-pyrrolo[2,3-d]pyrimidin-4-yl]amino}benzoate] | 2000 nM
28 | O=C(Nc1ccccc1)Nc1cccc(Nc2ncnc3[nH]cc(C(=O)c4ccccc4)c23)c1 [drawing 260, 1-phenyl-3-(3-{[5-(phenylcarbonyl)-7H-pyrrolo[2,3-d]pyrimidin-4-yl]amino}phenyl)urea] | 28100 nM
29 | Cc1cccc(Nc2ncnc3[nH]cc(C(=O)c4ccccc4)c23)c1 [phenyl(4-(m-tolylamino)-7H-pyrrolo[2,3-d]pyrimidin-5-yl)methanone] | 55400 nM
30 | CC(C)(C)NC(=O)Nc1cccc(Nc2ncnc3[nH]cc(C(=O)c4ccccc4)c23)c1 [drawing 274, 1-tert-butyl-3-(3-{[5-(phenylcarbonyl)-7H-pyrrolo[2,3-d]pyrimidin-4-yl]amino}phenyl)urea] | 6650 nM
31 | O=C(Cn1ccnc1)Nc1ccc(Nc2ncnc3[nH]cc(C(=O)c4ccccc4)c23)cc1 [2-(1H-imidazol-1-yl)-N-(4-{[5-(phenylcarbonyl)-7H-pyrrolo[2,3-d]pyrimidin-4-yl]amino}phenyl)acetamide] | 798 nM

system: not given; test: not given; details: not given

Row | Compound | melting point
32 | Nc1cc(Cl)cc(Nc2ncnc3[nH]cc(C(=O)c4ccccc4)c23)c1 | > 300 °C
33 | O=C(Nc1ccccc1)c1cccc(Nc2ncnc3[nH]cc(C(=O)c4ccccc4)c23)c1 | > 300 °C
34 | CC(=O)Nc1cccc(Nc2ncnc3[nH]cc(C(=O)c4cccc(F)c4)c23)c1 | > 300 °C
35 | CC(C)(C)OC(=O)NCc1ccc(Nc2ncnc3[nH]cc(C(=O)c4ccccc4)c23)cc1 | 256 to 258 °C
36 | CCNC(=O)Nc1cccc(Nc2ncnc3[nH]cc(C(=O)c4ccccc4)c23)c1 | 183 to 185 °C
37 | O=C(Nc1ccc(Nc2ncnc3[nH]cc(C(=O)c4ccccc4)c23)cc1)c1ccccc1 | > 300 °C
38 | CCOC(=O)c1cccc(Nc2ncnc3[nH]cc(C(=O)c4ccccc4)c23)c1 | 256 to 258 °C
39 | CC(C)(C)OC(=O)NCc1cccc(Nc2ncnc3[nH]cc(C(=O)c4ccccc4)c23)c1 | 210 to 212 °C
40 | CC(=O)Nc1ccc(Nc2ncnc3[nH]cc(C(=O)c4ccccc4)c23)cc1 | 263 to 264 °C
41 | O=C(c1ccccc1)c1c[nH]c2ncnc(Nc3cccc(CO)c3)c12 | 273 to 275 °C
42 | CC(C)(C)OC(=O)Nc1cccc(Nc2ncnc3[nH]cc(C(=O)c4ccccc4)c23)c1 | 288 to 290 °C
43 | CNC(=O)c1cccc(Nc2ncnc3[nH]cc(C(=O)c4ccc(Cl)cc4)c23)c1 | > 300 °C
